# Values joined by “and” are separate entries in the source; they are usually repeats but may differ in a detail not shown here. Identical values can stand only once.
# Legend:
# [1] = biological target: T1, leukotriene receptor (Cavia porcellus, UniProt Q2NNR5); assay: Binding of 3H-Leukotriene D4 to Guinea Pig Lung Membranes (RBL)
# T1 construct: Two pairs of lungs (1.3 g) from freshly sacrificed 300 g male guinea pigs; tissue Kuiper Rabbit Farm, Gary, Ind; (animals); host or cells: guinea pig lung, crude membranes
# T1 sequence (Q2NNR5 1-340): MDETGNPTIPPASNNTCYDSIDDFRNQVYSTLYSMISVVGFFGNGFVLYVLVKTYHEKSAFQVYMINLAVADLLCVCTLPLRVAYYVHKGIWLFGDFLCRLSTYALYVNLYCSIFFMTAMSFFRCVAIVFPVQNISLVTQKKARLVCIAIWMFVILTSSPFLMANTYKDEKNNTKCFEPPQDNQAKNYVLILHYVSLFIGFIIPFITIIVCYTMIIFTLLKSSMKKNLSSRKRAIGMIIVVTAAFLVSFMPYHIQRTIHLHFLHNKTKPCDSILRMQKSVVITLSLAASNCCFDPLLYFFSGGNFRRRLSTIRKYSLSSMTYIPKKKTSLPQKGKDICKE
# Protocol: Additionally, the activity, of the compounds having the Formula I of the present invention is determined by the well known leukotriene receptor binding assay that is described by R. F. Bruns, W. J. Thomsen and T. A. Pugsley in Life Sciences, 33, 645 (1983) or the Herxheimer in vivo antiallergy test described in H. Herxheimer, J. Physiol. (London), Vol. 177, p. 251 (1952).
# [14,15-^3 H]leukotriene D4 (^3 H-LTD4) (25 Ci/mmol and 40 Ci/mmol) is purchased from New England Nuclear. Unlabeled LTC4 is a gift of Ono Pharmaceuticals (Japan). LTC4, LTD4, and LTE4 are purchased as methyl esters from Paesel GmbH (Frankfurt, W. Germany). Concentrations of the Paesel leukotrienes are calculated from their absorbance at 280 nm. Leukotriene esters are saponified overnight under N2 in 3.3% potassium carbonate at room temperature. Tritiated leukotrienes are stored as received from New England Nuclear at -20° C. Ono LTC4 (5 μg/ml) is stored at -60° C. in phosphate buffer pH - 6.8. Saponified Paesel leukotrienes are stored at -60° C. in 3.3% potassium carbonate (pH 9.0-9.5). Aliquots of leukotrienes are taken from stock solutions immediately after thawing, after which the stock solutions are immediately refrozen. 2-Amino-2-(hydroxymethyl)-1,3-propanediol (Tris) is Sigma pH 7.7 pre-set crystals, and dimethylsulfoxide is Aldrich Gold Label. Preparation of crude lung membranes
# Two pairs of lungs (1.3 g) from freshly sacrificed 300 g male guinea pigs (older animals gave substantially lower binding) from Kuiper Rabbit Farm, Gary, Ind. are disrupted with a Polytron PT 10 (setting 4) for 30 seconds in 20 ml ice-cold 50 mM Tris adjusted with HCl to pH 7.7 at 25° C. (Tris buffer), filtered through a single layer of gauze to remove connective tissue, and centrifuged at 50,000 xg for ten min. The pellet is resuspended by homogenization with a Polytron in 20 ml Tris buffer, centrifuged at 50,000 xg for ten min., resuspended, incubated at 37° C. for 30 minutes, and centrifuged again. The final pellet is resuspended in Tris buffer and either used fresh or stored at -70° C.
# All incubations are in triplicate for 60 minutes at 25° C. in 12×75 mm polystyrene tubes containing 1 ml Tris buffer with 20 mg original tissue wet weight of guinea pig lung membranes, 0.2 nM ^3 H-LTD4 (6,000-11,000 cpm), 10 mM MgCl2, and 1% dimethylsulfoxide. Leukotrienes are diluted in Tris buffer. All other test compounds dissolved at 10 mM in dimethylsulfoxide on the same day as the experiment, and diluted in dimethylsulfoxide to 100× the final incubation concentration. Control incubations receive an equal volume (10 μl) of dimethylsulfoxide; the resulting concentration of dimethylsulfoxide had no effect on binding. ^3 H-LTD4 is diluted to 2 nM in Tris buffer. The membrane suspension (20 mg/0.89 ml) contains sufficient MgCl2 to give 10 mM final concentration in the incubation. […] All additions are performed at 0° C. Immediately after the last addition, the incubation is initiated by agitating the rack of tubes on a vortex mixer and warming to 25° C. in a water bath. Tubes are vortexed at least once more during the incubation to ensure that the membranes remained suspended. Incubations are terminated after 60 minutes by filtering under reduced pressure through 25 mm Whatman GF/B filters followed by rapid washing three times with 4 ml of ice-cold Tris buffer. Filters are added to scintillation vials with 8 ml Formula 947 (New England Nuclear), left overnight, shaken, and the radioactivity counted in a scintillation counter (efficiency 40%). Nonspecific binding, defined as binding of ^3 H-LTD4 in the presence of 100 nM LTC4, is 300-500 cpm for all lots of ^3 H-LTD4. Binding to the filters in the absence of tissue is about 100 cpm, and is not affected by unlabeled LTC4. Specific binding, defined as total binding minus nonspecific binding, varied considerably from lot to lot of ^3 H-LTD4. […]
# [2] = system: Human Leukocyte Lipoxygenase; assay: Human Leukocyte Lipoxygenase Assay (LDA-H); type: biochemical
# Protocol: Whole blood is collected from normal volunteers and spun in a refrigerated centrifuge for four minutes at 1°-6° C. at 3800 g. The buffy coat is manually separated and washed twice with chilled 0.83% NH4 Cl and centrifuged at 1000 RPM for ten minutes at 4° C. The white cell is suspended in culture media-EMEM supplemented with 6% Agamma human serum, tricine buffer, and neomycin and recentrifuged at 1000 g to yield a pellet containing the leukocytes used for the preparation of the acetone pentane powder.
# The acetone-pentane powder is prepared utilizing a modification of the procedure reported for human platelet lipoxygenase. See Siegel, et al, Arachidonate Metabolism via Lipoxygenase and 12-L-hydro-peroxy-5 Eicosatetraenoic Acid Peroxidase Sensitive to Antiinflammatory Drugs, Proc. Natl. Acad. Sci., U.S.A. 77:308, 1980 and D. P. Wallach and V. R. Brown, A Novel Preparation of Human Platlet Lipoxygenase, Biochem. Biophys. Acta. 663:361, 1981. Buffy coat prepared above is resuspended in 5-7 volumes of cold 0.1M Tris buffer, pH 7.4 containing 0.154M NaCl. The suspension is centrifuged at 13,300 g for ten minutes at 4° C. The resultant pellet is retained, resuspended in five volumes of cold acetone, recentrifuged at 13,300 g and resuspended in five volumes of cold pentane. The pentane suspension is centrifuged for ten minutes at 13,300 g to give a pellet which is dried in the cold under vacuum with periodic pulverization. The dry powder is stable for several weeks when stored at -80° C.
# Enzyme stock solution is prepared in the following manner. About 15 mg of the acetone-pentane powder is suspended in 4 ml of cold tris buffer (0.1M, pH 7.4), allowed to stand for five minutes, and homogenized thoroughly. The homogenate is sonicated three times for 15 seconds each time, diluted to 7 ml with cold tris buffer (0.1M, pH 7.4), and centrifuged at 4° C. for 60 minutes at 13,300 g. The supernatent is retained and diluted to a total of 10 ml with cold tris buffer (0.1M, pH 7.4) to give the stock enzyme solution. Additional dilutions of 2-50 fold are done as necessary to locate optimal enzyme reaction rate in the assay described below.
# Substrate solution is prepared at 100 μM or 1.0 μM concentrations of arachidonic acid or linoleic acid in 0.1M tris buffer, pH 9.0 containing 20% ethanol.
# The enzyme reaction is followed spectrophotometrically by the appearance of a conjugated diene product at 234 nm. The reaction is monitored at 24° C. using a Gilford Model 2600 spectrophotometer. […] The effects of inhibitors on the reaction are compared with control reactions run under indentical conditions. Routinely, each compounds of the present invention is incubated with the enzyme for five minutes prior to addition of substrate to initiate the reaction. Inhibition expressed as IC50 as molar concentration of the compound required to reduce reaction rate to 50% control.
compound,measurement,setting,value
O=C(Nc1ccc(CCc2cc(O)c(O)c(O)c2)cc1)C1=C(O)c2ccccc2S(=O)(=O)C1 [Example 36],"RBL, % Inhibition",[1]; 1.00 E -4 M,78.0% and 81.0%
same,"RBL, % Inhibition",[1]; 1.00 E -5 M,7.0%
same,"RBL, % Inhibition",[1]; 2.00 E -5 M,27.0%
same,"RBL, % Inhibition",[1]; 2.00 E -6 M,6.0%
same,"RBL, % Inhibition",[1]; 3.15 E -5 M,80.0%
same,"RBL, % Inhibition",[1]; 5.00 E -5 M,59.0%
same,"RBL, % Inhibition",[1]; 5.00 E -6 M,3.0%
same,"LDAH, % Inhibition",[2]; 2.50 E -5 M,0.0%
O=C(Nc1ccc(CCc2ccccc2O)cc1)C1=C(O)c2ccccc2S(=O)(=O)C1 [Example 38],IC50,"[1]; 0.2 nM 3H-LTD4, guinea pig lung membranes, 60 min, 25 °C, read-out: RBL, concentration for 50% inhibition (IC)",26.5 µM
same,"LDAH, % Inhibition",[2]; 2.50 E -5 M,0.0%
same,"LDAH, % Inhibition",[2]; 8.00 E -5 M,0.0%
CN(C)c1ccc(CCc2ccc(NC(=O)C3CS(=O)(=O)c4ccccc4C3=O)cc2)cc1 (stereo not drawn) [Example 55],"RBL, % Inhibition",[1]; 1.00 E -5 M,6.0%
same,"RBL, % Inhibition",[1]; 1.00 E -6 M,5.0%
same,"RBL, % Inhibition",[1]; 2.00 E -5 M,12.0%
same,"RBL, % Inhibition",[1]; 2.00 E -6 M,10.0%
same,"RBL, % Inhibition",[1]; 5.00 E -5 M,11.0%
same,"RBL, % Inhibition",[1]; 5.00 E -6 M,13.0%
"CCCCCCCCCCc1ccc(NC(=O)C(=O)c2sc3ccc(Cl)cc3c2O)cc1 [Example 135, Benzo[b]thiophene-2-acetamide, 5-chloro-N-(4-decylphenyl)-3-hydroxy-α-oxo]","RBL, % Inhibition",[1]; 1.00 E -4 M,43.0%
"O=C(Nc1ccc(CCc2ccc(Cl)cc2)cc1)C(=O)c1sc2ccccc2c1O [Example 137, Benzo[b]thiophene-2-acetamide, N-[4-[2-(4-chlorophenyl)ethyl]phenyl]-3-hydroxy-α-oxo]","RBL, % Inhibition",[1]; 1.00 E -4 M,12.0%
"COc1ccc(CCc2ccc(NC(=O)C(=O)c3sc4ccc(Cl)cc4c3O)cc2)cc1OC [Example 139, Benzo[b]thiophene-2-acetamide, 5-chloro-N-[4-[2-(3,4-dimethox-yphenyl)ethyl]phenyl]-3-hydroxy-α-oxo]","RBL, % Inhibition",[1]; 1.00 E -4 M,25.0%
"O=C(Nc1ccc(CCc2ccc(Cl)cc2)cc1)c1sc2ccccc2c1O [Example 145, Benzo[b]thiophene-2-carboxamide, N-[4-[2-(4-chlorophenyl)ethyl]phenyl]-3-hydroxy]","RBL, % Inhibition",[1]; 1.00 E -4 M,30.0%
